{
  "source": "ChEMBL document CHEMBL5465560",
  "about": "“Selectivity Literature for EUbOPEN Chemogenomic Library” (2024)",
  "key": {"[1]": {"target": "T1, Serine/threonine-protein kinase NLK (Homo sapiens) (UniProt Q9UBE8)", "T1 sequence (whole entry)": "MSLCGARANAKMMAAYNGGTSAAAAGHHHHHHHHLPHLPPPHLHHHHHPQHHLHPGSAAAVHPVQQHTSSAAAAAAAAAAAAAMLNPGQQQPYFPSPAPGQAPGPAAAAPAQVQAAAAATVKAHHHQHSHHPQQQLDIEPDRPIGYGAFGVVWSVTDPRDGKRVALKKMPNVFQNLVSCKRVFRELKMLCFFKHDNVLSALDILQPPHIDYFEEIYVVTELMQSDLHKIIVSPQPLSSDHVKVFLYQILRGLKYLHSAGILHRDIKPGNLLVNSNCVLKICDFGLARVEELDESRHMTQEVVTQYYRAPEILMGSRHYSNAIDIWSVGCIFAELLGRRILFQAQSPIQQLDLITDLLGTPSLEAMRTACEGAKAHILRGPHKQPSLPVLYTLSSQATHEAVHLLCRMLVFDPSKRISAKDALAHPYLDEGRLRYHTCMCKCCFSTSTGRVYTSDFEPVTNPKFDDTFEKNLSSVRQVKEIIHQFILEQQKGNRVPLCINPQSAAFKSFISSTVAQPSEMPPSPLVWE", "assay": "Selectivity interaction (KinomeScan (DiscoverX)) EUB0000666a NLK", "conditions": "at 10 µM"}, "[2]": {"target": "T2, Inhibitor of nuclear factor kappa-B kinase subunit epsilon (Homo sapiens) (UniProt Q14164)", "T2 sequence (whole entry)": "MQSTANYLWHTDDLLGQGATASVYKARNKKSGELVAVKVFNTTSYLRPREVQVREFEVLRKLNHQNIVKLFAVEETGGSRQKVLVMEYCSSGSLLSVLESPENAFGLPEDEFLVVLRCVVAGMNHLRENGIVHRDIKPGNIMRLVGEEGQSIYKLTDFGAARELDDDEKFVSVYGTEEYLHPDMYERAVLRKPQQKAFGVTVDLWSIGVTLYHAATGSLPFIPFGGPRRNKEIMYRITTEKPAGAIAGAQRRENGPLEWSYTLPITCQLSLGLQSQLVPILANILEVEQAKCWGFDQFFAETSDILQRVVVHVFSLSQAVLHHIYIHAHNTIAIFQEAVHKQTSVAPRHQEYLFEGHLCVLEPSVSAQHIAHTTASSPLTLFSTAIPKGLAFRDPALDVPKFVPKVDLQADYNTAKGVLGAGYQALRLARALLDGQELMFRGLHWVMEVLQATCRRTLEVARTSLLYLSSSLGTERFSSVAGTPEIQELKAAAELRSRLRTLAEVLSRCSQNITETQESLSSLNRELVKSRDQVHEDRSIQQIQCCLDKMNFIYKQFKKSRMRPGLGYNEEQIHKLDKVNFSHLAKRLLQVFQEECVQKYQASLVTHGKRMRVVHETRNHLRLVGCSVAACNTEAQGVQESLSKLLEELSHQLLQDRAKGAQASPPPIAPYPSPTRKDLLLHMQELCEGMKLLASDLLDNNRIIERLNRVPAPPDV", "assay": "Selectivity interaction (KinomeScan (DiscoverX)) EUB0000229b IKBKE", "conditions": "at 10 µM"}, "[3]": {"target": "Mitogen-activated protein kinase 3 (Homo sapiens, UniProt P27361)", "sequence (P27361 whole entry)": "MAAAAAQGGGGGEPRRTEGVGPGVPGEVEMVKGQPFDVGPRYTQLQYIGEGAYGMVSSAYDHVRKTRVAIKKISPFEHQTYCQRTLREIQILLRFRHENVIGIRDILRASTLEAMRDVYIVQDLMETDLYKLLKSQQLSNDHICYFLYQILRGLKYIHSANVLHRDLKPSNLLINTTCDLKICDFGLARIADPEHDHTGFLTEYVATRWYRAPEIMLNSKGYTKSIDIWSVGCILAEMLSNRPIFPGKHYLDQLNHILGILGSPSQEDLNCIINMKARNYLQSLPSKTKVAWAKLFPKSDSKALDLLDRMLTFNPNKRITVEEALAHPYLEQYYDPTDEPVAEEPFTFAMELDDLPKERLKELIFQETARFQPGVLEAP", "conditions": "at 10 µM"}, "Focal adhesion kinase 1": {"target": "Focal adhesion kinase 1 (Homo sapiens, UniProt Q05397)", "assay": "Selectivity interaction (Kinase panel (Invitrogen)) EUB0000639a PTK2", "conditions": "at 200 nM"}, "[4]": {"target": "T2, Inhibitor of nuclear factor kappa-B kinase subunit epsilon (Homo sapiens)", "assay": "Selectivity interaction (KinomeScan (DiscoverX)) EUB0000092b IKBKE", "conditions": "at 10 µM"}, "[5]": {"target": "T3, Serine/threonine-protein kinase Nek9 (Homo sapiens) (UniProt Q8TD19)", "T3 sequence (whole entry)": "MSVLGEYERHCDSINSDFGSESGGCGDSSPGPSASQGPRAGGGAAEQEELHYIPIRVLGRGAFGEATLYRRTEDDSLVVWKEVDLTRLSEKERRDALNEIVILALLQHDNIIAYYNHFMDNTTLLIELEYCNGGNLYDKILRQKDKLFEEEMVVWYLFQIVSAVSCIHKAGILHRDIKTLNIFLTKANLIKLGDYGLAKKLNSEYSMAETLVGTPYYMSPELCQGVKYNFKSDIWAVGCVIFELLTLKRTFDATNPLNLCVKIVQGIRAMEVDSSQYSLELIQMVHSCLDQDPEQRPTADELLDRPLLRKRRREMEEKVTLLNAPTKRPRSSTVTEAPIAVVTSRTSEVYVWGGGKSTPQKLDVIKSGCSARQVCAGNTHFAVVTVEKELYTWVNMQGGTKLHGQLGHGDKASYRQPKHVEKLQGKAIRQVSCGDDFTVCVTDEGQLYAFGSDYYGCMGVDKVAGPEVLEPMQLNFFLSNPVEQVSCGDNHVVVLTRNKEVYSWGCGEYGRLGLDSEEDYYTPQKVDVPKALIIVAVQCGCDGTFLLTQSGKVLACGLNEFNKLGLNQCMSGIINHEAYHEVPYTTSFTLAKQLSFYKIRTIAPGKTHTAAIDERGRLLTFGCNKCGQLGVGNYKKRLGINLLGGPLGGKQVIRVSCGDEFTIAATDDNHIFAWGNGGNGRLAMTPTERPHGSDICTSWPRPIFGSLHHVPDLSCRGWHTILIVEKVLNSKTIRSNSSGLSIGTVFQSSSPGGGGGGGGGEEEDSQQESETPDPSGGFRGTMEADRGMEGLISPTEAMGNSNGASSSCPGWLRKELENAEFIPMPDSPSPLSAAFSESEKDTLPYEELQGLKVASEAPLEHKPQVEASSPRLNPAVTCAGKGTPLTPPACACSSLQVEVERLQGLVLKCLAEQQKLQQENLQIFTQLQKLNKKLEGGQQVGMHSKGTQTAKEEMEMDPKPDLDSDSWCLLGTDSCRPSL", "assay": "Selectivity interaction (KinomeScan (DiscoverX)) EUB0000092b NEK9", "conditions": "at 10 µM"}, "[6]": {"target": "Serine/threonine-protein kinase SBK1 (Homo sapiens) (UniProt Q52WX2)", "sequence (Q52WX2 whole entry)": "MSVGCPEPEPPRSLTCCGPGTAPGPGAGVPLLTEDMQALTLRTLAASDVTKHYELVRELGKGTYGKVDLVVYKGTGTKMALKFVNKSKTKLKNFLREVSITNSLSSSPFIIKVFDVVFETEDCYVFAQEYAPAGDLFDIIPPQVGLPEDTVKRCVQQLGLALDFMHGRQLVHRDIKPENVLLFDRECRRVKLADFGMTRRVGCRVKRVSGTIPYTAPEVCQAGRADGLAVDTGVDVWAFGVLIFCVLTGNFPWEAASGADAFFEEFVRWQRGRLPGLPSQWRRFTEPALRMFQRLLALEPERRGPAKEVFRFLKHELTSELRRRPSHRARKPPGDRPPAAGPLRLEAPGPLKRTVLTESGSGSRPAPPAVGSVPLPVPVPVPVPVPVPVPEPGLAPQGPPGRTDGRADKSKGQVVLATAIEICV", "assay": "Selectivity interaction (KinomeScan (DiscoverX)) EUB0000092b SBK1", "conditions": "at 10 µM"}, "[7]": {"target": "RAC-alpha serine/threonine-protein kinase (Homo sapiens, UniProt P31749)", "assay": "Selectivity interaction (Ambit KINOMEscan and KiNATiv profiling in Jurkat cells) EUB0000090b AKT1", "type": "cell-based", "conditions": "at 1 µM"}, "[8]": {"target": "Ribosomal protein S6 kinase alpha-4 (Homo sapiens) (UniProt O75676)", "sequence (O75676 whole entry, looked up)": "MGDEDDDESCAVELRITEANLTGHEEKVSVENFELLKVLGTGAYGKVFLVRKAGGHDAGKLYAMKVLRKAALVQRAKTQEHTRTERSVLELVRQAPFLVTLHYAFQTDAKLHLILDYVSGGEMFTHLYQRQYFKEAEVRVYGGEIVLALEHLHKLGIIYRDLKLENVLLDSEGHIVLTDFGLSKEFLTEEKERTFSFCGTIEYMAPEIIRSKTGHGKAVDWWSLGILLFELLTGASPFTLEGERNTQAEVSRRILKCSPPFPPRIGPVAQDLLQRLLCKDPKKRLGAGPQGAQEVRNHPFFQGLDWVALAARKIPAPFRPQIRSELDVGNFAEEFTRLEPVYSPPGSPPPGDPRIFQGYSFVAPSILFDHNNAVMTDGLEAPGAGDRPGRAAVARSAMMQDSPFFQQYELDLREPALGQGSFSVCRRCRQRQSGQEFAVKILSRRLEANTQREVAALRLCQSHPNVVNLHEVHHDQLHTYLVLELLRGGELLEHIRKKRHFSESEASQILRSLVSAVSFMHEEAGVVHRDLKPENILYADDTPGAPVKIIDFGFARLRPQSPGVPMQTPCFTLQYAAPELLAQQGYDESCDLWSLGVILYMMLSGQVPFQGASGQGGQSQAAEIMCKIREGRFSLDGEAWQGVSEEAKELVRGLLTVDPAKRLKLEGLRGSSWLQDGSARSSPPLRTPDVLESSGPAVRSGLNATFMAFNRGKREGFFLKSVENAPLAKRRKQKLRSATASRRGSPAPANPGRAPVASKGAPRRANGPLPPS", "assay": "Selectivity interaction (KinomeScan (DiscoverX)) EUB0000045b RPS6KA4", "conditions": "at 1 µM"}, "Misshapen-like kinase 1": {"target": "Misshapen-like kinase 1 (Homo sapiens, UniProt Q8N4C8)", "sequence (Q8N4C8 whole entry, looked up)": "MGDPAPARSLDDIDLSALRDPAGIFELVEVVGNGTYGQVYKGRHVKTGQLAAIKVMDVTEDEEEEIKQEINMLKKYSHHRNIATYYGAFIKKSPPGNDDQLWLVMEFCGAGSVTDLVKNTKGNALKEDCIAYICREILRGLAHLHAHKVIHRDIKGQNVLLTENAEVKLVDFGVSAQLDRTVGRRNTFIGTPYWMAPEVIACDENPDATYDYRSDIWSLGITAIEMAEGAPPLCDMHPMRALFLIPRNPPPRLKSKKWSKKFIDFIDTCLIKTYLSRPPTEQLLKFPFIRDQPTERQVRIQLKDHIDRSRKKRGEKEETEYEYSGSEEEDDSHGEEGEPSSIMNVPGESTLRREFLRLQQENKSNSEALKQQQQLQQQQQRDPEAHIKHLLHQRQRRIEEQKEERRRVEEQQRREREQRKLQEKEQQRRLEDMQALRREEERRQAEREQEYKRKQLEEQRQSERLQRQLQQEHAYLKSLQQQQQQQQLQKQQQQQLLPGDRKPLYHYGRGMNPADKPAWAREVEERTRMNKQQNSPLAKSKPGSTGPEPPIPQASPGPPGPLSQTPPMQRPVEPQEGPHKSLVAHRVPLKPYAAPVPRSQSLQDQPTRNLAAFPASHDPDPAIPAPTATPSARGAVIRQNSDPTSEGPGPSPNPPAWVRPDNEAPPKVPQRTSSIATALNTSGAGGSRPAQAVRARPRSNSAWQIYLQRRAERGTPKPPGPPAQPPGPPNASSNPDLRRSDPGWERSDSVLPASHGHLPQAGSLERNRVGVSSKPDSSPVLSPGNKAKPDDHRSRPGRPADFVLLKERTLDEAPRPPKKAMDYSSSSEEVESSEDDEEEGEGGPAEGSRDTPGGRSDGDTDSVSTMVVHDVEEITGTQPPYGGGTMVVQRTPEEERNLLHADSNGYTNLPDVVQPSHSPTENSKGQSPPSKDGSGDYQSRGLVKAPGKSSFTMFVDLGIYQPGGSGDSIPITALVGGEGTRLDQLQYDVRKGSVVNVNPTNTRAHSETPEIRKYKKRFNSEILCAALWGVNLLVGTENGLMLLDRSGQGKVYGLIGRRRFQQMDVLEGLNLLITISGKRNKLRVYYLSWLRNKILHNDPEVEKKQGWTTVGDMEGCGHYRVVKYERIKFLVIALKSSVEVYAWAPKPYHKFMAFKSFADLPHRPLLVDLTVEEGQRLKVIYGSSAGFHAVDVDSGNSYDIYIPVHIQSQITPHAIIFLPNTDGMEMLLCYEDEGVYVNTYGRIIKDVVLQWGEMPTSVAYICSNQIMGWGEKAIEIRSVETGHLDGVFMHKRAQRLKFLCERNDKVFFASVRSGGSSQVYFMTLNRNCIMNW", "assay": "Selectivity interaction (KinomeScan (DiscoverX)) EUB0000618a MINK1", "conditions": "at 10 µM"}, "[9]": {"target": "Phosphatidylinositol 4-kinase beta (Homo sapiens, UniProt Q9UBF8)", "sequence (Q9UBF8 2-816 limits assumed)": "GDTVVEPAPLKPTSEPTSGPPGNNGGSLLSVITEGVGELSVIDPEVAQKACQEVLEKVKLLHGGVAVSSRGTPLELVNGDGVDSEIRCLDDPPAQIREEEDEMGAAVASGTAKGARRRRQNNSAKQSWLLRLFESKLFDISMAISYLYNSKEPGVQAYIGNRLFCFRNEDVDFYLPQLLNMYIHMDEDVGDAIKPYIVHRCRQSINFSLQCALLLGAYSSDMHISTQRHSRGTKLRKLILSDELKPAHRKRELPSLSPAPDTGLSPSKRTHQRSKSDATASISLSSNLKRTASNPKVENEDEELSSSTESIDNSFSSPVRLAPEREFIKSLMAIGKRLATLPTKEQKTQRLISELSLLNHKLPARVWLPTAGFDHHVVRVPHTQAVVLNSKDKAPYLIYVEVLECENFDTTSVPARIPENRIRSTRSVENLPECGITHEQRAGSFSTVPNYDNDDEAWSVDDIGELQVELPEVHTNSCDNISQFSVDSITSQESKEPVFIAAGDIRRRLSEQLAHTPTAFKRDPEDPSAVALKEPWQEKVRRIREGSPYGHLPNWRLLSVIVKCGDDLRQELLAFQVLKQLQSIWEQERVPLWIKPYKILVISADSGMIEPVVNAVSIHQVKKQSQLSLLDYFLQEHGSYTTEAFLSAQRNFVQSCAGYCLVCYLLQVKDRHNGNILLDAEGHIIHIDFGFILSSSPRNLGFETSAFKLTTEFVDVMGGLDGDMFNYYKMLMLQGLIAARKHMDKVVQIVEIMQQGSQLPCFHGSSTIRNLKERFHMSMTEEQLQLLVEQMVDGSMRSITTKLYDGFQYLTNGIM", "conditions": "at 10 µM"}, "Insulin receptor": {"target": "Insulin receptor (Homo sapiens, UniProt P06213)", "sequence (P06213 28-758 limits assumed)": "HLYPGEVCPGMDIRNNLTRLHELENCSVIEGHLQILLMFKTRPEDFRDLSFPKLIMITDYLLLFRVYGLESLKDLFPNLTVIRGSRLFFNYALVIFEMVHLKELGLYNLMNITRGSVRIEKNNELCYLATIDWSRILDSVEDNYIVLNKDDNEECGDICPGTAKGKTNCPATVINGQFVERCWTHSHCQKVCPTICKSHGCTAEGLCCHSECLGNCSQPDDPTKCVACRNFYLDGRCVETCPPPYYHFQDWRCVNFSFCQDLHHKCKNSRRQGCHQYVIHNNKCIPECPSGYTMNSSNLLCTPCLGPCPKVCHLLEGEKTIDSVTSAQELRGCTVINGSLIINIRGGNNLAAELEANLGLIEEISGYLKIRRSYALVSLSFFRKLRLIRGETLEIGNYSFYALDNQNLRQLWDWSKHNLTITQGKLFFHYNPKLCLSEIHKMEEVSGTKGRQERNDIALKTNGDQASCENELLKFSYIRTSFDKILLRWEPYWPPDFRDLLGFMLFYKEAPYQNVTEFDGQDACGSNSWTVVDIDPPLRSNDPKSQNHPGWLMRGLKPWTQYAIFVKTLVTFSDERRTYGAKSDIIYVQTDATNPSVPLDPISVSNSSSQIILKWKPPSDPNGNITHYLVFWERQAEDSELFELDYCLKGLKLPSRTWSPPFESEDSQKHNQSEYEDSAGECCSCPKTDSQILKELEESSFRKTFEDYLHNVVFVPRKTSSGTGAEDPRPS", "sequence (P06213 763-1382 limits assumed)": "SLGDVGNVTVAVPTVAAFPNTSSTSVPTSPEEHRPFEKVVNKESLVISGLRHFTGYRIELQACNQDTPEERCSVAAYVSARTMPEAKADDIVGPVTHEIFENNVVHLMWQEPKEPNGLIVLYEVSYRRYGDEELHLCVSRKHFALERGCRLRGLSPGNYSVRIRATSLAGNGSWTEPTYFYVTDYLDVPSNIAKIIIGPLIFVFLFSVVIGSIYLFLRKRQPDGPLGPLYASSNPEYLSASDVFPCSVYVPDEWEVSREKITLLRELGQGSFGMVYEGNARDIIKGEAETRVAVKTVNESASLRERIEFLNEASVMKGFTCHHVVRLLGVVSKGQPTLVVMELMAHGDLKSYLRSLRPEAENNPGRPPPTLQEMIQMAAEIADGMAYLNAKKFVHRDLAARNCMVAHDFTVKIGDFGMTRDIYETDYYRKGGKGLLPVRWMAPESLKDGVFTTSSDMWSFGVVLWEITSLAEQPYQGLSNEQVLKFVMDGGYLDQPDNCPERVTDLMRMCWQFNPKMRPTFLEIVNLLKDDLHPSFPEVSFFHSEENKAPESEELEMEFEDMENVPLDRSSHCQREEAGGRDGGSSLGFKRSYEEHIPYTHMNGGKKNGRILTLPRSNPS", "assay": "Selectivity interaction (KinomeScan (DiscoverX)) EUB0001619a INSR", "conditions": "at 1 µM"}, "[10]": {"target": "Leukocyte tyrosine kinase receptor (Homo sapiens, UniProt P29376)", "assay": "Selectivity interaction (KinomeScan (DiscoverX)) EUB0000655a LTK", "conditions": "at 10 µM"}, "[11]": {"target": "Mitogen-activated protein kinase 10 (Homo sapiens, UniProt P53779)", "assay": "Selectivity interaction (KinomeScan (DiscoverX)) EUB0000655a MAPK10", "conditions": "at 10 µM"}},
  "data": [
    {"compound": "O=C(NOC[C@H](O)CO)c1ccc(F)c(F)c1Nc1ccc(I)cc1F", "values": [
      {"measurement": "% of control", "setting": "[1]", "value": 77, "unit": "%"}
    ]},
    {"compound": "COc1cc(N(C)c2ccnc3ccc(C(F)(F)F)cc23)cc(OC)c1OC", "values": [
      {"measurement": "% binding", "setting": "[2]", "value": 84, "unit": "%"}
    ]},
    {"compound": "CCN(CC)CCCCNc1ncc2cc(-c3cc(OC)cc(OC)c3)c(NC(=O)NC(C)(C)C)nc2n1", "values": [
      {"measurement": "% of control", "setting": "[3]", "value": 100, "unit": "%"}
    ]},
    {"compound": "CC[C@@H]1[C@H](F)C(=O)N[C@@H]1COc1nccc2cc(C(N)=O)c(OC)cc12", "note": "[ZIMLOVISERTIB]", "values": [
      {"measurement": "% of inhibition", "setting": "Focal adhesion kinase 1", "value": 3.3, "unit": "%"}
    ]},
    {"compound": "CCC(=O)N1CCN(c2ccc(-n3c(=O)ccc4cnc5ccc(-c6cnc7ccccc7c6)cc5c43)cc2C(F)(F)F)CC1", "values": [
      {"measurement": "% of control", "setting": "[4]", "value": 87, "unit": "%"},
      {"measurement": "% of control", "setting": "[5]", "value": 100, "unit": "%"},
      {"measurement": "% of control", "setting": "[6]", "value": 88, "unit": "%"}
    ]},
    {"compound": "CN(C)C/C=C/C(=O)Nc1ccc(C(=O)N2CCCC(Nc3ncc(Cl)c(-c4c[nH]c5ccccc45)n3)C2)cc1", "note": "(centres undefined)", "values": [
      {"measurement": "% of control", "setting": "[7]", "value": 92, "unit": "%"}
    ]},
    {"compound": "C=CC(=O)Nc1cc(-n2c(=O)ccc3cnc4ccc(-c5ccc(NS(C)(=O)=O)cc5)cc4c32)ccc1C", "values": [
      {"measurement": "% of control", "setting": "[8]", "value": 67, "unit": "%"}
    ]},
    {"compound": "O[C@H]1CC[C@H](Nc2ncc3nc(Nc4c(F)cc(F)cc4F)n([C@H]4CCOC4)c3n2)CC1", "values": [
      {"measurement": "% of control", "setting": "Misshapen-like kinase 1", "value": 71, "unit": "%"}
    ]},
    {"compound": "Cc1cc([C@@H](C)Nc2ccccc2C(=O)O)c2nc(N3CCOCC3)cc(=O)n2c1", "note": "[AZD-6482]", "values": [
      {"measurement": "% of control", "setting": "[9]", "value": 100, "unit": "%"}
    ]},
    {"compound": "N#Cc1cccc(-c2c[nH]c3ncnc(N4CCOCC4)c23)c1", "values": [
      {"measurement": "% of control", "setting": "Insulin receptor", "value": 100, "unit": "%"}
    ]},
    {"compound": "CN(C)CCOc1ccc(-c2nc(-c3ccncc3)c(-c3ccc4c(c3)CC/C4=N\\O)[nH]2)cc1", "values": [
      {"measurement": "% of control", "setting": "[10]", "value": 67, "unit": "%"},
      {"measurement": "% of control", "setting": "[11]", "value": 8.6, "unit": "%"}
    ]}
  ]
}
